Assay results: patent US9163032B2, “Esters of DCPLA and methods of treatment using the same” (Blanchette Rockefeller Neurosciences Institute, priority 2011, dated 2015)

What was measured:
[1] = tested on: cultured primary rat hippocampal neurons; assay: Neuroprotection against ASPD induced toxicity, MTT assay, primary neurons; type: cell-based
Method: Viability of cells was measured by MTT assay. MTT (i.e., 3-(4,5-dimethylthiazol-2-yl)-2,5-diphenyltetrazolium bromide) is a tetrazolium salt that is cleaved to formazan by the succinate dehydrogenase, which is only active in viable cells. After solubilization of the formazan, the amount of dye can be quantified with a microplate reader at 570 nm along with a reference of 630 nm. For the MTT assay, 5×10^4 primary rat hippocampal neurons from 18-day-old embryonic Sprague-Dawley rat brains or SH-SY5Y cells were plated on each well of 24-well plates coated with poly-D-lysine. After treatment, the cells were washed with 1× PBS and were incubated with 200 μl of 1 mg/ml MTT solution (Sigma, USA) at 37° C. for 2 hr. Then the MTT-solution was removed and the cells were lysed with 200 μl isopropanol containing 0.04 M HCl and […] for 10 min. Finally, the reading was taken at 570 nm and 630 nm. All the samples were done in triplicate and the data were represented as the percentage of control.
Bryostatin 1, DCPLA, and DCPLA-ME were tested against ASPD-induced cytotoxicity to determine their neuroprotective efficacy.

[2] = tested on: PSD-95; assay: PSD-95 expression in primary hippocampal neurons (immunofluorescence); type: cell-based, rat; conditions: 20 hr
Method: (§1) Cells were grown in two chambered slides (Nunc, USA) at low density. For immunofluorescence staining, the cells were washed with PBS (pH 7.4) and fixed with 4% paraformaldehyde for 4 min. Following fixation, the cells were blocked and permeabilized with 5% serum and 0.3% Triton X-100 in 1×PBS for 30 min. Cells were washed three times with 1×PBS and incubated with primary antibodies for 1 hr at 1:100 dilution. After the incubation, the slides were again washed three times in 1×PBS and were incubated with the FITC anti-mouse IgG and Rhodamine anti-rabbit IgG for 1 hr at 1:400 dilution. The cells were further washed and stained with DAPI (4′,6-diamidino-2′-phenylindole, dihydrochloride) (Thermo Scientific, USA) to stain the nucleus. Finally, the slides were washed and mounted in Pro Long Gold antifade mounting solution (Invitrogen, USA) and were viewed under a LSM 710 Meta confocal microscope (Zeiss) at 350 nm, 490 nm, and 540 nm excitation and 470 nm, 525 nm, and 625 nm emission for DAPI, FITC, and Rhodamine respectively. Six individual fields at 63× oil lens magnification were analyzed for the mean fluorescence intensity (MFI) in each channel.
(§2) To estimate the synaptic damage caused by the ASPDs on primary hippocampal neurons, the expression of synaptophysin (a presynaptic marker) and PSD-95 (a postsynaptic marker) was measured by immunofluorescence staining. […] Following a 20 hr incubation period, the cells were stained for nucleus, PSD-95, and synaptophysin. Expression levels were calculated as the change of percentage in mean fluorescence intensity compared to untreated cells.
(§3) Primary neurons, treated and untreated, were immunostained for MAP-2, synaptophysin, and PSD-95 to determine the synaptic integrity. […] Following a 20 hr incubation period, the cells were stained for MAP-2, PSD-95, and synaptophysin as described above.

[3] = tested on: GSK-3β; assay: Phospho GSK-3β (Ser-9) Western Blot in ASPD treated primary neurons; type: cell-based, rat
Method: Phospho GSK-3β expression was normalized against total GSK-3β expression. […] Data are represented as mean±SEM. (Student's t test *.p<0.05; and **, p<0.005 n=3).
(§4) Cells were harvested in homogenizing buffer containing 10 mM Tris-Cl (pH 7.4), 1 mM PMSF (phenylmethylsulfonyl fluoride), 1 mM EGTA, 1 mM EDTA, 50 mM NaF, and 20 μM leupeptin, and were lysed by sonication. The homogenate was centrifuged at 100,000×g for 15 min at 4° C. to obtain the cytosolic fraction (supernatant) and membrane (pellet). The pellet was resuspended in the homogenizing buffer by sonication. For whole cell protein isolation from primary neurons, the homogenizing buffer contained 1% Triton X-100. Protein concentration was measured using the Coomassie Plus (Bradford) Protein Assay kit (Pierce, USA). Following quantification, 20 μg of protein from each sample was subjected to SDS-PAGE analysis in a 4-20% gradient Tris-Glycine gel (Invitrogen, USA). The separated protein was then transferred to a nitrocellulose membrane. The membrane was blocked with 5% BSA at room temperature for 15 min and was incubated with primary antibody overnight at 4° C. […] The blot was imaged in an ImageQuant RT-ECL (GE Life Sciences, Piscataway, N.J.) and densitometric quantification was performed using IMAL software (Blanchette Rockefeller Neurosciences Institute, Morgantown, W. Va.). […]

[4] = tested on: MAP-2; assay: MAP-2 expression in primary hippocampal neurons (immunofluorescence); type: cell-based, rat; conditions: 20 hr
Method: as §1
Primary neurons, treated and untreated, were immunostained for MAP-2, synaptophysin, and PSD-95 to determine the synaptic integrity. […]

[5] = tested on: PKC-ε; assay: PKC-ε level in primary neurons (immunofluorescence, Western Blot); type: cell-based, rat
Method: as §1
as §4, with “For whole cell protein isolation from primary neurons, the homogenizing buffer contained 1% Triton X-100.” left out, “USA).” for “USA). The separated protein was then transferred to a nitrocellulose membrane. The membrane was blocked with 5% BSA at room temperature for 15 min and was incubated with primary antibody overnight at 4° C.”

[6] = tested on: PKC-ε; assay: PKC-ε translocation to membrane in SH-SY5Y neuroblastoma cells (Western Blot); type: cell-based, human
Method: (§5) Cells were harvested in homogenizing buffer containing 10 mM Tris-Cl (pH 7.4), 1 mM PMSF (phenylmethylsulfonyl fluoride), 1 mM EGTA, 1 mM EDTA, 50 mM NaF, and 20 μM leupeptin, and were lysed by sonication. The homogenate was centrifuged at 100,000×g for 15 min at 4° C. to obtain the cytosolic fraction (supernatant) and membrane (pellet). The pellet was resuspended in the homogenizing buffer by sonication. For whole cell protein isolation from primary neurons, the homogenizing buffer contained 1% Triton X-100. Protein concentration was measured using the Coomassie Plus (Bradford) Protein Assay kit (Pierce, USA). Following quantification, 20 μg of protein from each sample was subjected to SDS-PAGE analysis in a 4-20% gradient Tris-Glycine gel (Invitrogen, USA). The separated protein was then transferred to a nitrocellulose membrane. The membrane was blocked with 5% BSA at room temperature for 15 min and was incubated with primary antibody overnight at 4° C. After the incubation, it was washed three times with TBS-T (Tris Buffered Saline-Tween 20) and further incubated with alkaline phosphatase conjugated secondary antibody (Jackson Immunoresearch Laboratories, USA) at 1:10000 dilution for 45 min. The membrane was finally washed three times with TBS-T and developed using the 1-step NBT-BCIP substrate (Pierce, USA). The blot was imaged in an ImageQuant RT-ECL (GE Life Sciences, Piscataway, N.J.) and densitometric quantification was performed using IMAL software (Blanchette Rockefeller Neurosciences Institute, Morgantown, W. Va.). For translocation assays, PKC activation was represented as the percentage of total protein in the membrane (membrane/cytosol+membrane).

[7] = tested on: synaptophysin; assay: Synaptophysin expression in primary hippocampal neurons (immunofluorescence, Western Blot); type: cell-based, rat
Method: as §1, §5, §2, §3

## CCCCCC1CC1CC1CC1CCCCCCCC(=O)OC (stereo not drawn) [DCPLA-ME, DCPLA methyl ester]
[1]; 50 nM ASPD, DCPLA-ME 100 nM vs Bryostatin 1 0.27 nM
  more viable than Bryostatin 1-treated cells: 16%
[1]; 50 nM ASPD, DCPLA-ME 100 nM vs DCPLA 10 μM
  more viable than DCPLA-treated cells: 8%
[2]; 50 nM ASPD + 100 nM DCPLA-ME
  PSD-95 mean fluorescence intensity: 99.2±11.3 % of control
[3]; ASPD (50 nM) + DCPLA-ME (100 nM)
  phosphorylation of the Ser-9 residue of GSK-3β: restored phosphorylation of the Ser-9 residue of GSK-3β to normal levels
[4]; 50 nM ASPD + 100 nM DCPLA-ME
  MAP-2 mean fluorescence intensity: 68.87±2.0 % of control
[5]; ASPD-treated primary neurons, 100 nM DCPLA-ME
  PKC-ε protein level (Western Blot): restored the PKC-ε protein level to normal
[6]; ASPD + DCPLA-ME, FIG. 8D
  PKC-ε translocation in ASPD-treated cells: restored PKC-ε translocation to normal
[7]; 50 nM ASPD + 100 nM DCPLA-ME, 20 hr
  synaptophysin mean fluorescence intensity: 87.48±3.75 % of control

## ASPD: Amylospheroids from Aβ1-42, 100 kDa filter retentate, containing 39 monomers on average
[1]; 50 nM ASPD alone, 20 hr
  viability of primary neurons: 57.6±1.6%
[2]; 50 nM ASPD
  PSD-95 mean fluorescence intensity: 67.63±7.24 % of control
  decrease of PSD-95 expression: 42%
[3]; ASPD 50 nM
  GSK-3β activation state: activated GSK-3β
[4]; 50 nM ASPD
  MAP-2 mean fluorescence intensity: 40.7±6.2 % of control
[5]; ASPD, 20 hr, primary neurons
  PKC-ε immunofluorescence level: 60.81±5.85 % compared to control
[6]; ASPD 50 nM
  reduction of PKC-ε membrane translocation: 46%
[6]; ASPD 50 nM, relative to control
  PKC-ε membrane translocation: 69.98±3.27%
[7]; 50 nM ASPD, 20 hr
  synaptophysin mean fluorescence intensity: 63.3±3.8 % of control
[7]; 50 nM ASPD, 20 hr, listed as ASPDs
  synaptophysin mean fluorescence intensity: 62.45±6.74 % of control
[7]; 50 nM, 20 hr
  decrease in synaptophysin intensity: 40%
[7]; ASPD
  decrease of synaptophysin expression (Western Blot): 26%
[7]; ASPD, relative to control
  synaptophysin expression (Western Blot): 73.30%
